Laboratory results reported in patent US20090143454A1, “Pyrazoline Derivatives and Their Use As Pesticides” (BAYER CROPSCIENCE AG, priority 2001, published 2009).

What was measured:
Type in all cases: in vivo
[1] = test system: caterpillars of the army worm (Spodoptera exigua); experiment: Spodoptera exigua test; details: 500 ppm, cabbage leaves dipped
Procedure: To produce a suitable preparation of active compound, 1 part by weight of active compound is mixed with the stated amounts of solvent and emulsifier, and the concentrate is diluted with emulsifier-containing water to the desired concentration.
Cabbage leaves (Brassica oleracea) are treated by being dipped into the preparation of active compound of the desired concentration and are populated with caterpillars of the army worm (Spodoptera exigua) while the leaves are still moist.
After the desired period of time, the kill in % is determined. 100% means that all caterpillars have been killed; 0% means that none of the caterpillars have been killed.

[2] = test system: adult Musca domestica, strain Reichswald (OP, SP, carbamate-resistent); experiment: Test with flies (Musca domestica); details: 100 ppm; treated filter paper; time not given
Procedure: 20 mg of active compound are dissolved in 1 ml of dimethyl sulphoxide. More dilute concentrations are prepared by dilution with distilled water.
2 ml of the preparation of active compound are pipetted onto a filter paper dish (Ø 9.5 cm), which are placed in a Petri dish of corresponding diameter. After drying of the filter dishes 25 test animals are transferred in the Petri dishes and covered.
After 1, 3, 5, 24 and 48 hours (or after the times given in the tables below) the activity of the preparation of active compound is determined. 100% means, that all flies have been killed, 0% means, that none of the flies have been killed.

[3] = test system: Boophilus microplus resistent/SP-resistent Parkhurst-strain, adult sucked female; experiment: Test with Boophilus microplus resistent/SP-resistent Parkhurst-strain; details: 100 μg animal, injected into the abdomen; oviposition of fertile eggs after 7 days
Procedure: […] More dilute concentrations are prepared by dilution with the same solvent.
The test is carried out in 5-fold determination. […] The control of activity is made after 7 days for oviposition of fertile eggs. Eggs whose fertility cannot be seen from the outside are stored in glass tubes in a climate chamber until the larvae have been hatched. An activity of 100% means, that no tick has hatched fertile eggs.

[4] = test system: Diabrotica balteata larvae; experiment: Diabrotica test (larvae in soil); details: 20 ppm (mg/l soil), Diabrotica balteata larvae on maize in treated soil

With `N#Cc1cnn(C2CN(C(=O)Nc3ccc(SC(F)(F)F)cc3)N=C2c2ccc(Cl)cc2)c1` (stereo not shown) [drawing 60] the “Kill rate in % after 7 d” value [1] was 100%.

With `N#Cc1cnn(C2CN(C(=O)Nc3ccc(C(F)(F)F)cc3)N=C2c2ccc(Cl)cc2)c1` (stereo not shown) [drawing 59] the “Kill rate in % after 7 d” value [1] was 100%.

With `N#Cc1cnn(C2CN(C(=O)Nc3ccc(OC(F)(F)F)cc3)N=C2c2ccc(Cl)cc2)c1` (stereo not shown) [drawing 93] the “activity/kill rate in %” value [2] was 30%.

For `N#CCN(C(=O)N1CC(n2cc(C#N)cn2)C(c2ccc(Cl)cc2)=N1)c1ccc(OC(F)(F)F)cc1` (stereo not shown) [drawing 96], the “activity/kill rate in %” value [2] was 60%.

In the case of `N#Cc1cnn(C2CN(C(=O)Nc3ccc(S(=O)(=O)C(F)(F)F)cc3)N=C2c2ccc(Br)cc2)c1` (stereo not shown) [drawing 91], the “activity/kill rate in %” value [3] is reported as 100%.

In the case of `N#Cc1cnn(C2CN(C(=O)Nc3ccc(SC(F)(F)F)cc3)N=C2c2ccc(Cl)cc2)c1` (stereo not shown) [drawing 37], the “Kill rate in % after 10 d” value [4] is reported as 100%.

In the case of `N#CCN(C(=O)N1CC(n2cc(C#N)cn2)C(c2ccc(Cl)cc2)=N1)c1ccc(OC(F)(F)F)cc1` (stereo not shown) [drawing 92], the “activity/kill rate in %” value [3] is reported as 100%.

For `N#Cc1cnn(C2CN(C(=O)Nc3ccc(C(F)(F)F)cc3)N=C2c2ccc(Cl)cc2)c1` (stereo not shown) [drawing 94], the “activity/kill rate in %” value [2] was 30%.

With `N#Cc1cnn(C2CN(C(=O)Nc3ccc(OC(F)(F)F)cc3)N=C2c2ccc(Br)cc2)c1` (stereo not shown) [drawing 95] the “activity/kill rate in %” value [2] was 75%.

In the case of `N#Cc1cnn(C2CN(C(=O)Nc3ccc(OC(F)(F)F)cc3)N=C2c2ccc(Cl)cc2)c1` (stereo not shown) [drawing 58], the “Kill rate in % after 7 d” value [1] is reported as 100%.
